Measured values reported in ChEMBL document CHEMBL1201862, “PubChem BioAssay data set” (2004).
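Five concentrations, 48 hours, 96-well plates. GI50 marks 50% less growth.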 Activity calls are given as the source filed them. No stated cut-off is given here; in the data, active = GI50 up to about 1.1 µM and inactive = higher.

What was measured:
Experiment in all cases: NCI tumour cell line growth inhibition, 48 h
[1] = test system: HOP-18
[2] = test system: SNB-19
[3] = test system: IGROV-1
[4] = test system: KM12
[5] = test system: SK-OV-3
[6] = test system: UO-31
[7] = test system: A549
[8] = test system: Malme-3M
[9] = test system: OVCAR-4
[10] = test system: SNB-78
[11] = test system: HCT-116
[12] = test system: M19-MEL
[13] = test system: SN12C
[14] = test system: XF498
[15] = test system: DMS-114
[16] = test system: MOLT-4
[17] = test system: SK-MEL-5
[18] = test system: UACC-257
[19] = test system: NCI-H226
[20] = test system: NCI-H522
[21] = test system: SF-295
[22] = test system: UACC-62
[23] = test system: SF-268
[24] = test system: SK-MEL-2
[25] = test system: HCT-15
[26] = test system: OVCAR-8
[27] = test system: TK-10
[28] = test system: DLD-1
[29] = test system: SK-MEL-28
[30] = test system: ACHN
[31] = test system: HT-29
[32] = test system: RXF 393
[33] = test system: NCI-H460
[34] = test system: SNB-75
[35] = test system: LXFL 529
[36] = test system: SF-539
[37] = test system: DMS-273
[38] = test system: OVCAR-3
[39] = test system: LOX IMVI
[40] = test system: NCI-H23
[41] = test system: EKVX
[42] = test system: HL-60
[43] = test system: OVCAR-5
[44] = test system: SR
[45] = test system: SW-620
[46] = test system: U-251
[47] = test system: COLO 205
[48] = test system: CCRF-CEM
[49] = test system: HOP-62
[50] = test system: M14
[51] = test system: HOP-92
[52] = test system: RPMI-8226
[53] = test system: CAKI-1
[54] = test system: A498
[55] = test system: K562
[56] = test system: 786-0
[57] = test system: KM-20L2

`CC(=O)Oc1cc(OC(C)=O)c2c(=O)c3ccccc3[nH]c2c1` was tested, and the GI50 [1] was 10.5 µM (inactive), the GI50 [2] was 70.1 µM (inactive) and the GI50 [3] was 19.1 µM (inactive). The GI50 [4] was 37.8 µM (inactive), the GI50 [5] was 13.9 µM (inactive) and the GI50 [6] was 12.5 µM (inactive). For the same molecule, the GI50 [7] was 61.9 µM (inactive), the GI50 [8] was 24.4 µM (inactive) and the GI50 [9] was 65.9 µM (inactive). For the same molecule, the GI50 [10] was 57 µM (inactive), the GI50 [11] was 56.8 µM (inactive) and the GI50 [12] was 31.9 µM (inactive). The GI50 [13] was 36.5 µM (inactive), the GI50 [14] was 11.2 µM (inactive) and the GI50 [15] was 24.8 µM (inactive). For the same molecule, the GI50 [16] was 27.5 µM (inactive), the GI50 [17] was 18.9 µM (inactive) and the GI50 [18] was 28.1 µM (inactive). The GI50 [19] was 27.5 µM (inactive), the GI50 [20] was 24.8 µM (inactive) and the GI50 [21] was 32.7 µM (inactive). For the same molecule, the GI50 [22] was 62.1 µM (inactive), the GI50 [23] was 50.5 µM (inactive) and the GI50 [24] was 49.5 µM (inactive). For the same molecule, the GI50 [25] was 49.3 µM, the GI50 [26] was 32.9 µM (inactive) and the GI50 [27] was 38.5 µM (inactive). The GI50 [28] was 21.3 µM (inactive), the GI50 [29] was 54.6 µM (inactive) and the GI50 [30] was 24.6 µM (inactive). For the same molecule, the GI50 [31] was 49.2 µM (inactive), the GI50 [32] was 58.3 µM (inactive) and the GI50 [33] was 33.3 µM (inactive). The GI50 [34] was 35.2 µM (inactive), the GI50 [35] was 26.9 µM (inactive) and the GI50 [36] was 20.8 µM (inactive). For the same molecule, the GI50 [37] was 45.4 µM (inactive), the GI50 [38] was 16.2 µM (inactive) and the GI50 [39] was 39.4 µM (inactive). For the same molecule, the GI50 [40] was 27.2 µM (inactive).
In the case of `NC(CCC(=O)Nc1ccc(O)cc1)C(=O)O` (configuration not stated), the GI50 [1] is reported as > 100 µM (inactive), the GI50 [2] is reported as > 100 µM (inactive) and the GI50 [4] is reported as > 100 µM (inactive). The GI50 [5] was > 100 µM (inactive), the GI50 [41] was > 100 µM (inactive) and the GI50 [42] was > 100 µM (inactive). For the same molecule, the GI50 [6] was > 100 µM (inactive), the GI50 [7] was > 100 µM (inactive) and the GI50 [43] was > 100 µM (inactive). For the same molecule, the GI50 [8] was > 100 µM (inactive), the GI50 [9] was > 100 µM (inactive) and the GI50 [44] was > 100 µM (inactive). For the same molecule, the GI50 [10] was > 100 µM (inactive), the GI50 [45] was > 100 µM (inactive) and the GI50 [11] was > 100 µM (inactive). For the same molecule, the GI50 [13] was > 100 µM (inactive), the GI50 [46] was > 100 µM (inactive) and the GI50 [47] was > 100 µM (inactive). The GI50 [48] was > 100 µM (inactive), the GI50 [14] was > 100 µM (inactive) and the GI50 [15] was > 100 µM (inactive). The GI50 [49] was > 100 µM (inactive), the GI50 [50] was > 100 µM (inactive) and the GI50 [16] was > 100 µM (inactive). The GI50 [17] was > 100 µM (inactive), the GI50 [18] was > 100 µM (inactive) and the GI50 [19] was > 100 µM (inactive). For the same molecule, the GI50 [20] was > 100 µM (inactive), the GI50 [22] was > 100 µM (inactive) and the GI50 [23] was > 100 µM (inactive). For the same molecule, the GI50 [24] was > 100 µM (inactive), the GI50 [25] was over 100 µM and the GI50 [26] was > 100 µM (inactive). For the same molecule, the GI50 [51] was > 100 µM (inactive), the GI50 [52] was > 100 µM (inactive) and the GI50 [27] was > 100 µM (inactive). The GI50 [28] was > 100 µM (inactive), the GI50 [29] was > 100 µM (inactive) and the GI50 [30] was > 100 µM (inactive). For the same molecule, the GI50 [53] was > 100 µM (inactive), the GI50 [54] was > 100 µM (inactive) and the GI50 [31] was > 100 µM (inactive). The GI50 [32] was > 100 µM (inactive), the GI50 [55] was > 100 µM (inactive) and the GI50 [33] was > 100 µM (inactive). For the same molecule, the GI50 [34] was > 100 µM (inactive), the GI50 [35] was > 100 µM (inactive) and the GI50 [56] was > 100 µM (inactive). The GI50 [37] was > 100 µM (inactive), the GI50 [57] was > 100 µM (inactive) and the GI50 [38] was > 100 µM (inactive). The GI50 [39] was > 100 µM (inactive).
